One block for each molecule: values may come before it.
Assays:
[1] = test system: phosphorylation of IRF3 in THP-1 cells (STING activation); assay: Phosphorylation of IRF3: THP-1 cell ELISA; format: cell-based; settings: Homo sapiens, 3 hours incubation, read-out: THP-1 CELL P-IRF3 EC50
Description: Phosphorylation of IRF3: THP-1 cell ELISA
STING activation results in recruitment of TBK1 and phosphorylation of IRF3 transcription factor before induction of type I interferons. THP-1 cells (InvivoGen) were grown in RPMI media plus 2 mM L-glutamine, 10% fetal bovine serum, and 0.5% Pen-Strep. 10^4 cells were seeded in 96-well plates and incubated overnight […]. Compounds serial diluted compounds in media (final 0.5% DMSO) were added to the cells and incubated for an additional 3 hours. After incubation, the plates were centrifuged at 2000 rpm for 5 min. The cells were then lysed in 100 μl RIPA buffer and vortexed for 30 minutes at room temperature. 25 μl of lysate was then transferred to clear polystyrene High Bind plates that had been previously coated with mouse anti-human IRF-3 capture antibody (BD Pharmigen), and allowed to incubate at 4° C. for 16 hours. The plates were then washed and incubated with rabbit anti-phospho-IRF3 detection antibody (Cell Signaling Technologies) for 1.5 hours at room temperature. Finally, an HRP-linked secondary antibody (Cell Signaling Technologies) was added for 30 min before the Glo Substrate Reagent (R&D Systems) was used generate the luminescent signal. The signal was measured using a Perkin-Elmer Envision microplate reader. Data were normalized to “% effect” with a positive control STING agonist that was known to maximize the phosphorylated IRF3 signal and the negative control was DMSO.

[2] = test system: THP-1 Lucia ISG cells (IRF-inducible Lucia luciferase reporter); assay: Interferon-β induction: THP-1 ISG reporter cell line; format: cell-based; settings: THP1-Lucia ISG, 24 hours incubation, read-out: THP-1 Lucia ISG Cells IFN-β EC50
Description: Interferon-β Induction: THP-1 ISG Reporter Cell Line
THP-1 Lucia™ ISG cells (InvivoGen) express the secreted luciferase “Lucia” reporter gene under the control of an IRF-inducible composite promotor comprised of five interferon response elements. THP-1 Lucia™ ISG cells were grown in RPMI media plus 2 mM L-glutamine, 10% fetal bovine serum, and 0.5% Pen-Strep. Hygromycin B and Zeocin were present to maintain stable transfection. 10^4 cells were seeded in 96-well plates and incubated overnight 37° C., 5% CO2. 50 μL of serial diluted compounds in media (final 0.5% DMSO) was and incubated for an additional 24 hours. After incubation, the plates were centrifuged at 2000 rpm for 10 min. 50 μl of cell culture supernatant of each well was transferred to a white, opaque 96-well plate. One pouch of QUANTI-Luc™ (InvivoGen) powder was prepared in 25 mL of endotoxin-free water and 100 μL of prepared warm QUANTI-Luc solution were added to each well containing the supernatant. The luminescence signal was measured using a Perkin-Elmer Envision microplate reader. Data were normalized to “% effect” with a positive control STING agonist that was known to maximize the luciferase signal and the negative control DMSO.

[3] = molecular target: R232-STING (Homo sapiens (Human), UniProt Q86WV6, H232R); settings: read-out: R232-STING SPA-IC50 Ki; STING residues 155-341, 100 nM 3H-cGAMP; KI from IC50 with Cheng-Prusoff equation
R232-STING, sequence (Q86WV6 155-341 H232R): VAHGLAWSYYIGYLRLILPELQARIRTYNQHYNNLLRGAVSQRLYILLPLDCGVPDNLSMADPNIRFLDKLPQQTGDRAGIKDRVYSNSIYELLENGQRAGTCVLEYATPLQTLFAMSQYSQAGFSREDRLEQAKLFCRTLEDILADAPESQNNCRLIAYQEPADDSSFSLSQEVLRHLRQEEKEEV

SMILES: Cc1cc(-c2cn(C)c(-c3nc(C(N)=O)cc4c3cnn4C)n2)n(CCCC(F)F)n1 [AIF14, 4-{4-[1-(4,4-difluorobutyl)-3-methyl-1H-pyrazol-5-yl]-1-methyl-1H-imidazol-2-yl}-1-methyl-1H-pyrazolo[4,3-c]pyridine-6-carboxamide]
- EC50 [1]: 1.37 µM
- EC50 [2]: 1.32 µM
- Ki [3]: 0.0282 µM

SMILES: Cc1cc(-c2cn(C)c(-c3nc(C(N)=O)cc4c3cnn4C)n2)n(CCCC#N)n1 [AIF15, 4-{4-[1-(3-cyanopropyl)-3-methyl-1H-pyrazol-5-yl]-1-methyl-1H-imidazol-2-yl}-1-methyl-1H-pyrazolo[4,3-c]pyridine-6-carboxamide]
- EC50 [1]: 1.35 µM
- EC50 [2]: 1.83 µM
- Ki [3]: 0.0466 µM

SMILES: Cc1cc(-c2cn(C)c(-c3nc(C(N)=O)cc4c3cnn4C)n2)n(C)n1 [AIH02, 4-[4-(1,3-dimethyl-1H-pyrazol-5-yl)-1-methyl-1H-imidazol-2-yl]-1-methyl-1H-pyrazolo[4,3-c]pyridine-6-carboxamide]
- EC50 [1]: 4.3 µM
- EC50 [2]: 2.56 µM
- Ki [3]: 0.0227 µM

SMILES: CCCn1nccc1-c1cn(C)c(-c2nc(C(N)=O)cc3c2cnn3C)n1 [AIH03, 1-methyl-4-[1-methyl-4-(1-propyl-1H-pyrazol-5-yl)-1H-imidazol-2-yl]-1H-pyrazolo[4,3-c]pyridine-6-carboxamide]
- EC50 [1]: 6.58 µM
- EC50 [2]: 6.26 µM
- Ki [3]: 0.148 µM

SMILES: Cn1cc(-c2ccnn2C)nc1-c1nc(C(N)=O)cc2c1cnn2C [AIH04, 1-methyl-4-[1-methyl-4-(1-methyl-1H-pyrazol-5-yl)-1H-imidazol-2-yl]-1H-pyrazolo[4,3-c]pyridine-6-carboxamide]
- EC50 [1]: > 10 µM
- EC50 [2]: > 10 µM
- Ki [3]: 0.151 µM

SMILES: CCn1nccc1-c1cn(C)c(-c2nc(C(N)=O)cc3c2cnn3C)n1 [AIH05, 4-[4-(1-ethyl-1H-pyrazol-5-yl)-1-methyl-1H-imidazol-2-yl]-1-methyl-1H-pyrazolo[4,3-c]pyridine-6-carboxamide]
- EC50 [1]: > 10 µM
- EC50 [2]: > 10 µM
- Ki [3]: 0.0933 µM

SMILES: COCCCn1nc(C)cc1-c1cn(C)c(-c2nc(C(N)=O)cc3c2cnn3C(F)F)n1 [AIN02, 1-(difluoromethyl)-4-{4-[1-(3-methoxypropyl)-3-methyl-1H-pyrazol-5-yl]-1-methyl-1H-imidazol-2-yl}-1H-pyrazolo[4,3-c]pyridine-6-carboxamide]
- EC50 [1]: 0.99 µM
- EC50 [2]: 1.2 µM
- Ki [3]: 0.0209 µM

SMILES: COCCCn1nc(C)cc1-c1cn(C)c(-c2nc(C(N)=O)cc3c2cnn3CF)n1 [AIN03, 1-(fluoromethyl)-4-{4-[1-(3-methoxypropyl)-3-methyl-1H-pyrazol-5-yl]-1-methyl-1H-imidazol-2-yl}-1H-pyrazolo[4,3-c]pyridine-6-carboxamide]
- EC50 [1]: 0.68 µM
- EC50 [2]: 0.85 µM
- Ki [3]: 0.0128 µM

SMILES: CCn1nc(C)cc1-c1cn(CCOC)c(-c2nc(C(N)=O)cc3c2cnn3C)n1 [AIP04, 4-[4-(1-ethyl-3-methyl-1H-pyrazol-5-yl)-1-(2-methoxyethyl)-1H-imidazol-2-yl]-1-methyl-1H-pyrazolo[4,3-c]pyridine-6-carboxamide]
- EC50 [1]: 1.14 µM
- EC50 [2]: 1.24 µM
- Ki [3]: 0.0352 µM

SMILES: CCn1nc(C)cc1-c1cn(C)c(-c2nc(C(N)=O)cc3c2cnn3CC)n1 [Example AIC01, 1-ethyl-4-[4-(1-ethyl-3-methyl-1H-pyrazol-5-yl)-1-methyl-1H-imidazol-2-yl]-1H-pyrazolo[4,3-c]pyridine-6-carboxamide]
- EC50 [1]: 1.26 µM
- EC50 [2]: 1.17 µM
- Ki [3]: 0.0121 µM

SMILES: CCc1nc(C)cn1-c1cn(C)c(-c2nc(C(N)=O)cc3c2cnn3C)n1 [Example AID01, 4-(2-ethyl-1′,4-dimethyl-1′H-[1,4′-biimidazol]-2′-yl)-1-methyl-1H-pyrazolo[4,3-c]pyridine-6-carboxamide]
- EC50 [1]: 6.42 µM
- EC50 [2]: 6.31 µM
- Ki [3]: 0.0875 µM

SMILES: Cc1cc(-c2cn(C)c(-c3nc(C(N)=O)cc4c3cnn4C)n2)n(CCCO)n1 [Example AIE01, 4-{4-[1-(3-hydroxypropyl)-3-methyl-1H-pyrazol-5-yl]-1-methyl-1H-imidazol-2-yl}-1-methyl-1H-pyrazolo[4,3-c]pyridine-6-carboxamide]
- EC50 [1]: 0.2 µM
- EC50 [2]: 0.22 µM
- Ki [3]: 0.0036 µM

SMILES: CCn1nc(C)cc1-c1cn(C)c(-c2nc(C(N)=O)nc3c2cnn3C)n1 [Example AIG01, 4-[4-(1-ethyl-3-methyl-1H-pyrazol-5-yl)-1-methyl-1H-imidazol-2-yl]-1-methyl-1H-pyrazolo[3,4-d]pyrimidine-6-carboxamide]
- EC50 [1]: > 10 µM
- EC50 [2]: > 10 µM
- Ki [3]: 0.0818 µM

SMILES: COCCCn1nc(C)cc1-c1cn(C)c(-c2nc(C(N)=O)cc3c2cnn3C2CC2)n1 [Example AIN01, 1-cyclopropyl-4-{4-[1-(3-methoxypropyl)-3-methyl-1H-pyrazol-5-yl]-1-methyl-1H-imidazol-2-yl}-1H-pyrazolo[4,3-c]pyridine-6-carboxamide]
- EC50 [1]: 0.73 µM
- EC50 [2]: 0.8 µM
- Ki [3]: 0.0046 µM

SMILES: Cc1cc(-c2cn(C)c(-c3nc(C(N)=O)cc4c3cnn4C)n2)n(CC#N)n1 [Example AIP01, 4-{4-[1-(cyanomethyl)-3-methyl-1H-pyrazol-5-yl]-1-methyl-1H-imidazol-2-yl}-1-methyl-1H-pyrazolo[4,3-c]pyridine-6-carboxamide]
- EC50 [1]: > 10 µM
- EC50 [2]: > 10 µM
- Ki [3]: 0.0431 µM

Results, then the molecule that gave them:

- EC50 [1]: 0.25 µM
- EC50 [2]: 0.16 µM
- Ki [3]: 0.0029 µM
SMILES: CCn1cc(-c2c(O)c(C)nn2CC)nc1-c1nc(C(N)=O)cc2c1cnn2C [AIF13, 4-[1-ethyl-4-(1-ethyl-4-hydroxy-3-methyl-1H-pyrazol-5-yl)-1H-imidazol-2-yl]-1-methyl-1H-pyrazolo[4,3-c]pyridine-6-carboxamide]

- EC50 [1]: 0.37 µM
- EC50 [2]: 0.31 µM
- Ki [3]: 0.0029 µM
SMILES: CCn1nc(C)c(O)c1-c1cn(C)c(-c2nc(C(N)=O)cc3c2cnn3CC)n1 [AIN04, 1-ethyl-4-[4-(1-ethyl-4-hydroxy-3-methyl-1H-pyrazol-5-yl)-1-methyl-1H-imidazol-2-yl]-1H-pyrazolo[4,3-c]pyridine-6-carboxamide]

- EC50 [1]: 0.67 µM
- EC50 [2]: 0.82 µM
- Ki [3]: 0.0107 µM
SMILES: CCn1nc(C)cc1-c1cn(C)c(-c2nc(C(N)=O)cc3c2cnn3C)n1 [Example AIA01, 4-[4-(1-ethyl-3-methyl-1H-pyrazol-5-yl)-1-methyl-1H-imidazol-2-yl]-1-methyl-1H-pyrazolo[4,3-c]pyridine-6-carboxamide]

- EC50 [1]: 0.5 µM
- EC50 [2]: 0.54 µM
- Ki [3]: 0.0098 µM
SMILES: CCCn1nc(C)cc1-c1cn(C)c(-c2nc(C(N)=O)cc3c2cnn3C)n1 [Example AIF01, 1-methyl-4-[1-methyl-4-(3-methyl-1-propyl-1H-pyrazol-5-yl)-1H-imidazol-2-yl]-1H-pyrazolo[4,3-c]pyridine-6-carboxamide]

- EC50 [1]: 0.4 µM
- EC50 [2]: 0.45 µM
- Ki [3]: 0.0102 µM
SMILES: CCn1ncc2c(-c3nc(-c4cc(C)nn4CCCO)cn3C)nc(C(N)=O)cc21 [Example AIJ01, 1-ethyl-4-{4-[1-(3-hydroxypropyl)-3-methyl-1H-pyrazol-5-yl]-1-methyl-1H-imidazol-2-yl}-1H-pyrazolo[4,3-c]pyridine-6-carboxamide]

- EC50 [1]: 0.33 µM
- EC50 [2]: 0.43 µM
- Ki [3]: 0.0152 µM
SMILES: CCn1cc(-c2cc(C)nn2CCCOC)nc1-c1nc(C(N)=O)cc2c1cnn2C [Example AIK01, 4-{1-ethyl-4-[1-(3-methoxypropyl)-3-methyl-1H-pyrazol-5-yl]-1H-imidazol-2-yl}-1-methyl-1H-pyrazolo[4,3-c]pyridine-6-carboxamide]

- EC50 [1]: 0.53 µM
- EC50 [2]: 0.53 µM
- Ki [3]: 0.0246 µM
SMILES: Cc1cc(-c2cn(C)c(-c3nc(C(N)=O)cc4c3cnn4C)n2)n(CCCOC(F)F)n1 [Example AIL01, 4-(4-{1-[3-(difluoromethoxy)propyl]-3-methyl-1H-pyrazol-5-yl}-1-methyl-1H-imidazol-2-yl)-1-methyl-1H-pyrazolo[4,3-c]pyridine-6-carboxamide]
